We go through 12 compounds from ChEMBL document CHEMBL1126498, “Heterocyclic inhibitors of human leukocyte elastase: 3-Hydroxypyridazopyrimidine, 3-hydroxypyridopyrimidine and 3-hydroxyquinazoline-2,4-1H,3H0dione derivatives” (Bioorg Med Chem Lett, 1993).

Molecules are shown by their SMILES. Calls of active or inactive are those of the source. The rule behind the calls is not given here.

For test [1], the target named is T1, Neutrophil elastase (Homo sapiens) (UniProt P08246).
T1 sequence (whole entry): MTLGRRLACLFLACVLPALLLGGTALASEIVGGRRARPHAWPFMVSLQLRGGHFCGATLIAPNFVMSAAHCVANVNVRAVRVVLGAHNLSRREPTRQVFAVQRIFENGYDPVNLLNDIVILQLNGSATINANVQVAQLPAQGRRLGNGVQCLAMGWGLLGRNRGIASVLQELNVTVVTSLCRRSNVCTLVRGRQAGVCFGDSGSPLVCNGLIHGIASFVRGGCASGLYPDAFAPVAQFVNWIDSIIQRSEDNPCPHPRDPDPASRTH
The test is described as follows: The bimolecular rate constant Kobs/[I] to inhibit human leukocyte elastase (HLE) was determined.

Test [2] deals with T1, Neutrophil elastase (Homo sapiens). The test is described as follows: The bimolecular rate constant Kobs/[I] to inhibit human leukocyte elastase (HLE) was determined; IA denotes inactive.

`CCCCS(=O)(=O)On1c(=O)[nH]c2cccnc2c1=O` showed a K obs / 1 in test [1] of 64 M⁻¹ s⁻¹.

`O=c1[nH]c2nccnc2c(=O)n1OS(=O)(=O)c1ccccc1`: the “K obs / 1” value in test [2] was “inactive”.

Take `CS(=O)(=O)On1c(=O)[nH]c2nccnc2c1=O`: the “K obs / 1” value in test [2] is “inactive”.

On to `CC(C)CS(=O)(=O)On1c(=O)[nH]c2ccccc2c1=O`, for which, in test [1], the K obs / 1 came out at 170 M⁻¹ s⁻¹.

`CCCCS(=O)(=O)On1c(=O)[nH]c2ccncc2c1=O`: the K obs / 1 in test [1] turned out to be 58 M⁻¹ s⁻¹.

`CCCOP(=O)(OCCC)On1c(=O)[nH]c2ccccc2c1=O`: the K obs / 1 in test [1] worked out at 3160 M⁻¹ s⁻¹.

Compound `CCCCOP(=O)(OCCCC)On1c(=O)[nH]c2ccccc2c1=O` had a K obs / 1 in test [1] of 3870 M⁻¹ s⁻¹.

The compound `CCCCS(=O)(=O)On1c(=O)[nH]c2ccccc2c1=O` displayed a K obs / 1 in test [1] of 180 M⁻¹ s⁻¹.

On to `CS(=O)(=O)On1c(=O)[nH]c2ccccc2c1=O`, for which the “K obs / 1” value in test [2] was “inactive”.

Regarding `CCCCS(=O)(=O)On1c(=O)[nH]c2nccnc2c1=O`, the K obs / 1 in test [1] is 20 M⁻¹ s⁻¹.

As to `CCCCCS(=O)(=O)On1c(=O)[nH]c2ccccc2c1=O`, the K obs / 1 in test [1] is 40 M⁻¹ s⁻¹.

As to `O=c1[nH]c2ccccc2c(=O)n1OS(=O)(=O)c1ccccc1`, the “K obs / 1” value in test [2] was “inactive”.
